Measured values reported in patent US9439415B2, “Method for reducing damage by harmful organisms in corn cultivation” (priority 2012, dated 2016).

Experiments:
[1] = system: Diabrotica virgifera virgifera and Agriotes lineatus; assay: Field furrow application test, lodge rate of corn due to damage by Diabrotica virgifera virgifera and Agriotes lineatus (Examples 4-8, 10, 11); format: in vivo; conditions: 165 days after application, versus non-treatment section
Text: A chemical fertilizer (N:P:K=15:15:15) is applied to the soil surface of a cultivated land at 300 kg/ha, and the cultivated land is then plowed.
7 days after fertilization, for suppressing generation of weeds, the soil surface of the whole cultivated land is spray-treated with a mixed liquid containing thiencarbazone-methyl and isoxaflutole, each of which being a herbicide, and cyprosulfamide which is a safener at 150 L/ha so that the application amounts of thiencarbazone-methyl, isoxaflutole and cyprosulfamide are 9.2 g/ha, 23 g/ha and 15 g/ha, respectively. […]
17 days after application of clothianidin and tefluthrin, the number of plants of corn germinated is investigated, with central two rows of four rows of seeded furrows as an investigation section, for the treatment section and the non-treatment section. 165 days after application of clothianidin and tefluthrin, the number of plants of corn lodged due to damage by Diabrotica virgifera virgifera and Agriotes lineatus in the furrows of the treatment section and the non-treatment section, for which the number of plants of corn germinated is investigated, is investigated, a lodge rate is calculated in accordance with the following equation, and then an average lodge rate for the four investigation sections is determined. […]

Agriotes spp. = assay: Field furrow spray test, mortality of corn plants from damage by Agriotes spp. (Example 9); format: in vivo; conditions: 50 g/ha, furrow spray 100 L/ha, 34 days after treatment, average of four sections, non-treatment section 16.35
Description: A land was ditched at intervals of 80 cm, a predetermined amount of a water-diluted liquid of an esfenvalerate emulsifiable concentrate (using 25 g/L of an EC preparation, trade name: Sumialpha 2.5 EC, manufactured by Philagro) or a water-diluted liquid of a lambda-cyhalothrin SC (using 100 g/L of a SC preparation, trade name: KAPATE ZEON, manufactured by SYNGENTA) was prepared so that the applied amount of an effective component was the amount described in Table 4, and the furrow was spray-treated with the liquid at a spray amount of 100 L/ha. Then, the furrow was seeded with corn (Zea Mays, variety name: Kubrik), and a soil on the side of the furrow was gathered together to close the furrow. A seeding density of corn was 87500 seeds/ha. They were defined as example sections 16 and 17.
For comparison, a non-treatment section, which was seeded with corn in the same manner as in the example sections except that a treatment with a chemical was not performed, was provided. […]
34 days after the treatment with a chemical, the number of plants of corn grown in each of the example sections 16 and 17 and the non-treatment section were investigated, a mortality of plants of corn died because of the damage by Agriotes spp. was calculated in accordance with the following equation, and then an average mortality of the four investigation sections was determined. […]

SMILES	Lodge rate (%) ([1]; Example 11: water-diluted lambda-cyhalothrin SC in furrow, 100 g/ha)	Average mortality (%) (Agriotes spp.)	Lodge rate (%) ([1]; Example 10: water-diluted Sumialpha 2.5 EC in furrow, esfenvalerate 100 g/ha)
CC1(C)[C@H](C(=O)O[C@H](C#N)c2cccc(Oc3ccccc3)c2)[C@@H]1/C=C(\Cl)C(F)(F)F (racemic) [Lambda-cyhalothrin]	low lodge rate as compared to the non-treatment section	3.35%	–
CC(C)[C@H](C(=O)O[C@H](C#N)c1cccc(Oc2ccccc2)c1)c1ccc(Cl)cc1 [Esfenvalerate]	–	4.85%	low lodge rate as compared to the non-treatment section
